Assays:
Sugar May peaches = assay: Effect of ACC concentration on fruit set of Sugar May peaches, applied at full bloom; assay type: in vivo, peach
Description: (§1) Effect of ACC concentration on fruit set (number of fruit per shoot) of Sugar May peaches and Sweet Dream peaches when applied at full bloom

Sweet Dream peaches = assay: Effect of ACC concentration on fruit set of Sweet Dream peaches, applied at full bloom; assay type: in vivo, peach
Description: as §1

Gala apples = assay: Effect of ACC concentration on modulating fruit set of Gala apples; assay type: in vivo, apple
Description: Effect of ACC concentration on modulating fruit set (number of fruit per 100 flower clusters) of Gala apples when applied at petal fall (BBCH67), 10 mm fruit diameter, or 20 mm fruit diameter.

NC1(C(=O)O)CC1 [ACC, 1-aminocyclopropane carboxylic acid]
Number of Fruit Per Shoot (fruit set) (Sugar May peaches; ACC 300 parts per million): 0.7 fruit per shoot
Number of Fruit Per Shoot (fruit set) (Sugar May peaches; ACC 600 parts per million): 0.3 fruit per shoot
Number of Fruit Per Shoot (fruit set) (Sugar May peaches; ACC 900 parts per million): 0.1 fruit per shoot
Number of Fruit Per Shoot (fruit set) (Sweet Dream peaches; ACC 300 parts per million): 12 fruit per shoot
Number of Fruit Per Shoot (fruit set) (Sweet Dream peaches; ACC 600 parts per million): 9 fruit per shoot
Number of Fruit Per Shoot (fruit set) (Sweet Dream peaches; ACC 900 parts per million): 6 fruit per shoot
fruit set (number of fruit per 100 flower clusters) (Gala apples; ACC 224 parts per million, applied at 10 mm fruit diameter): 125 fruit per 100 flower clusters
fruit set (number of fruit per 100 flower clusters) (Gala apples; ACC 224 parts per million, applied at 20 mm fruit diameter): 89 fruit per 100 flower clusters
fruit set (number of fruit per 100 flower clusters) (Gala apples; ACC 224 parts per million, applied at petal fall (BBCH67)): 117 fruit per 100 flower clusters
fruit set (number of fruit per 100 flower clusters) (Gala apples; ACC 450 parts per million, applied at 10 mm fruit diameter): 108 fruit per 100 flower clusters
fruit set (number of fruit per 100 flower clusters) (Gala apples; ACC 450 parts per million, applied at 20 mm fruit diameter): 46 fruit per 100 flower clusters
fruit set (number of fruit per 100 flower clusters) (Gala apples; ACC 450 parts per million, applied at petal fall (BBCH67)): 96 fruit per 100 flower clusters
fruit set (number of fruit per 100 flower clusters) (Gala apples; ACC 900 parts per million, applied at 10 mm fruit diameter): 63 fruit per 100 flower clusters
fruit set (number of fruit per 100 flower clusters) (Gala apples; ACC 900 parts per million, applied at 20 mm fruit diameter): 12 fruit per 100 flower clusters
fruit set (number of fruit per 100 flower clusters) (Gala apples; ACC 900 parts per million, applied at petal fall (BBCH67)): 72 fruit per 100 flower clusters

Reference: patent US20210212320A1, “FRUIT THINNING METHOD WITH 1-AMINOCYCLOPROPANE CARBOXYLIC ACID” (Valent BioSciences LLC, priority 2021, published 2021)
